The values below come from US11873299B1, “7-(4-((5-(4-chlorobenzylideneamino)-2-thioxo-1,3,4-thiadiazol-3(2H)-yl)methyl)iperazin-1-yl)-1-cyclopropyl-6-fluoro-4-oxo-1,4-dihydroquinoline-3-carboxylic acid as an anti-inflammatory compound” (KING FAISAL UNIVERSITY, priority 2023, dated 2024).

For orientation: melting point means the temperature of the solid-liquid transition.

Data set [1] deals with Bovine Serum Albumin (BSA) (Bos taurus, UniProt P02769). Briefly: Bovine Serum Albumin Assay (BSA), inhibition of protein denaturation. The format is biochemical. The following applies: dilutions of 20, 40, 60, 80, and 100 μg/mL; 0.4% w/v BSA, pH 6.4; 72° C. for 10 minutes; turbidity at 660 nm. Here is the method: Bovine Serum Albumin Assay (BSA)
In vitro-inflammatory activities of the tested samples were determined using a modified method of the BSA assay reported by Williams et al. BSA solution (0.4%, w/v) was prepared in Tris Buffered Saline. The pH was adjusted to 6.4 with glacial acetic acid. Different dilutions of 20, 40, 60, 80, and 100 μg/mL of 7-(4-((5-(4-chlorobenzylideneamino)-2-thioxo-1,3,4-thiadiazol-3(2H)-yl)methyl)piperazin-1-yl)-1-cyclopropyl-6-fluoro-4-oxo-1,4-dihydroquinoline-3-carboxylic acid (IV) the stock solutions were added to test tubes containing 1 mL of 0.4%, w/v BSA buffer solution. Both negative (solvent) and positive (aspirin) controls were assayed in a similar manner. The solutions were then heated in a water bath at 72° C. for 10 minutes, and cooled for 20 minutes under laboratory conditions. The turbidity of the solutions (level of protein precipitation) was measured at 660 nm in Spectrophotometer (V-770 UV-Visible/NIR Spectrophotometer). The percentage inhibition of precipitation (protein denaturation) was determined relative to the negative control using the following equation:
[formula] % Anti-Denaturation Activity=% Inhibition of Protein Denaturation=% Anti-inflammatory Activity

Bovine Serum Albumin (BSA), sequence (P02769 25-607): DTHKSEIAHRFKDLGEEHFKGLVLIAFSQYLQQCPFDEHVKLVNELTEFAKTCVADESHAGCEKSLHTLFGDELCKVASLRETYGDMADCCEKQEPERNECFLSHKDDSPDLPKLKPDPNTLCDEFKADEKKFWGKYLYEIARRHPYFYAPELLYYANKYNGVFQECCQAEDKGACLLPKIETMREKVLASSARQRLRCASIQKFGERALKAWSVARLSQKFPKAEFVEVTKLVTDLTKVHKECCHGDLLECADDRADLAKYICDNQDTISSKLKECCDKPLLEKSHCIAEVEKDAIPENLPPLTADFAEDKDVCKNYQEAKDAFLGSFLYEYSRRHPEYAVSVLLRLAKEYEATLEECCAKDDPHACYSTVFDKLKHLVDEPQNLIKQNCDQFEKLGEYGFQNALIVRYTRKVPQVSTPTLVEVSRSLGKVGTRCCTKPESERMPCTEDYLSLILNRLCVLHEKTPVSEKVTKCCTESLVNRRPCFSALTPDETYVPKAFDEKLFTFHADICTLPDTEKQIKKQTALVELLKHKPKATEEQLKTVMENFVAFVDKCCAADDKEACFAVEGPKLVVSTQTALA

`O=C(O)c1cn(C2CC2)c2cc(N3CCN(Cn4nc(/N=C/c5ccc(Cl)cc5)sc4=S)CC3)c(F)cc2c1=O` [IV, 7-(4-((5-(4-chlorobenzylideneamino)-2-thioxo-1,3,4-thiadiazol-3(2H)-yl)methyl)piperazin-1-yl)-1-cyclopropyl-6-fluoro-4-oxo-1,4-dihydroquinoline-3-carboxylic acid] displayed a melting point of 221 to 223 °C. In addition, the “in vitro anti-inflammatory activity (inhibition of protein denaturation)” value in data set [1] is listed as “considerable anti-inflammatory effect”.
